Earlier results on two compounds are cited in patent US4764376A, “Method of inhibiting aromatase” (Eli Lilly and Company, priority 1984, dated 1988).

This data set concerns breast cancer. The following applies: known aromatase inhibitors; result in words.

In the case of `CCC1(c2ccc(N)cc2)CCC(=O)NC1=O` (centres unmarked) [aminoglutethimide], the “beneficial effect in treatment of breast cancer” value is reported as “beneficial effect”.

For the compound `C[C@]12C=CC(=O)C=C1CC[C@@H]1[C@@H]2CC[C@]2(C)OC(=O)CC[C@@H]12` [testolactone], the “beneficial effect in treatment of breast cancer” value is “beneficial effect”.
